Legend:
[1] = system: human HSC; experiment: Migration of human HSCs treated with MC-MA375 (modified Boyden chamber); type: cell-based; settings: for Increase in migration of HSC induced by MC-A375 (in words): 12.5 μM 30 min prior to MC-A375; for Migration of human HSC's treated with MC-MA375 (No. cells migrated per field): 12.5 μM, 30 min before MC-MA375, 4 h, control 10.0 ± 4, treatment alone 91.5 ± 19
Description: (§1) isolation of primary human cultures of hepatic sinusoidal endothelial (HSE) hepatic stellate cells (HSCs). The primary cultures of human HSE and HSC cells were obtained by non-tumoral hepatic tissue serial profusion with collagenase and pronase solutions, followed by Nycodenz gradient and seeded on 24-well plates (0.5×10^4 cells/cm^2) in DMEM. supplemented with 10% FBS.
(§2) Human HSC and HSE cell migration tests (see Table 3). Primary cultured hepatic endothelial cells (25×10^5) or hepatic stellate cells (2×10^4) were seeded in the upper compartment of modified Boyden chambers equipped with a polycarbonate filter of an 8 μm pore size. Some cells were incubated in the presence or absence of 12.5 μM of azaresveratrol, 30 minutes prior to adding conditioned tumor medium. Twenty-four (24) hours later (in the case of the endothelial cells) or 4 hours later (in the case of hepatic star cells) the number of cells having passed through the membrane was determined. The cells were fixed, were stained with hematoxylin eosine and were counted under the microscope (20×) in 5 fields per well.

[2] = system: human HSC; experiment: Proliferation of human HSCs treated with MC-MA375; type: cell-based; settings: for Increase in HSC proliferation in response to MC-A375 (in words): 12.5 μM 30 min prior to MC-A375; for Proliferation of human HSC's treated with MC-MA375 (No. cells per well): 12.5 μM, 30 min before MC-MA375, 48 h, control 2550 ± 22, treatment alone 4400 ± 30
Experimental: as §1
HSC proliferation test. Primary cultured human HSC cultures were seeded (2500 cells/well/200 μl) in DMEM with 10% FBS. Once adhered, they were washed to remove the FBS and were incubated with fresh medium in the presence or absence of 12.5 μM of the azaresveratrol compound (see Table 3). Thirty (30) minutes later, conditioned media obtained from MA375 cells were added to some wells, and the plates were incubated for 48 hours in humid incubator at 37° C. with 5% CO2. Upon completion of the incubation time, the cells were fixed and were processed for counting just as previously described hereinabove.

[3] = system: HSE cells; experiment: Migration of HSE cells treated with MC-MA375 (modified Boyden chamber); type: cell-based, human; settings: for Increase in migration of HSE induced by MC-A375 (in words): 12.5 μM 30 min prior to MC-A375; for Migration of HSE's treated with MC-MA375 (No. cells per field): 12.5 μM, 30 min before MC-MA375, 24 h, control 10.0 ± 4, treatment alone 35.0 ± 8.0
Description: as §1, §2

[4] = system: MB16-Luc cells; experiment: Hepatic retention of luciferase-transfected MB16 cells (MB16-Luc); type: in vivo, C57BL/6J mice; settings: 2 doses of 1 mg/kg/day nasogastrically; 18 h after intrasplenic injection; control 1.80 ± 0.23
Description: Test of hepatic retention of luciferase-transfected MB16 cells (MB16-Luc) (see Table 1). B16M Cells were stably transfected by lipofection as described previously (Rubio N, Martinez-Villacampa M, Blanco J. Traffic to lymph nodes of PC-3 prostate tumor cells in nude mice visualized using the luciferase gene as a tumor cell marker. Lab Invest 1998; 78:1315-1325), using plasmid pRc/cytomegalovirus-luciferase, a construct containing the Photinus pyralis luciferase gene coding sequence under transcriptional control of the cytomegalovirus promoter and the neomycin resistance gene to the G418 antibiotic (Sigma Chemicals Co.). A total of 300,000 viable B16M-Luc cells were intrasplenically injected into C57BL/6J mice (10 mice per group) which had previously been nasogastrically administered 2 doses of 1 mg/kg/day of compound to be tested. One group of mice received resveratrol, the other group of mice received azaresveratrol. […] Production of light was measured using a luminometer designed to read individual samples tubes (bioorbit, LKB Wallac; Turku, Finland) after the addition of 100 μl of luciferase assay reagent to 20 μl of each liver homogenate. […] Linearity and sensitivity of light detection in liver homogenates and influence of hepatic microenvironment on luciferase activity of B16M-Luc were also evaluated as described previously (Rubio et al, 1998).

[5] = system: MB16 cells; experiment: Adhesion of IL-18-treated MB16 cells to HSE cell monolayer; type: cell-based, murine; settings: for Adhesion of MB16 cells treated with IL-18 to HSE cells (% adhered cells): 2.5 μM for 30 min prior to IL-18, control 24.4 ± 4, IL-18 alone 54 ± 6.0; for Increase of the percentage of adhesion of tumor cells to the HSE in response to IL-18 (in words): 2.5 μM for 30 minutes prior to IL-18
Description: Isolation of primary murine cultures of hepatic sinusoidal endothelial (HSE) cells. The hepatic sinusoidal cells were isolated from C57BL/6J mice (males, aged 6-8 weeks) supplied by IFFA Credo (L'Arbreole, France), followed by a purification and identification of the HSE cells following the protocol described by Vidal-Vanaclocha et al. (1993) [Vidal-Vanaclocha, F., Rocha, M., Asumendi, A. & Barbera-Guillem, E. Isolation and enrichment of two sublobular compartment-specific endothelial cell subpopulations from liver sinusoids. Hepatology, 1993, 18, 328-339]. Stable primary cultures of HSE cells were obtained after seeding the cells on a type I collagen substrate (Sigma Chemicals Co, St Louis, Mo.), and the cultures were maintained in DMEM-HCO^3−, penicillin (100 U/ml), streptomycin (100 μg/ml), supplemented with 10% fetal bovine serum at 37° C. with 5% CO2 in atmosphere at 98% humidity.
MB16 cell adhesion to the monolayer of HSE cells in culture. The endothelial cells were isolated 24 hours prior to the adhesion test and were seeded on 24-well plate, maintaining them a minimum of 4 hours in serum-free medium before incubating them with DMEM in the presence or not of MC-MB16 for 8 hours. The synthesized compounds (JE2:2 see FIG. 6; JEM2:2-01 and JEM2:1-02 see FIG. 8A; YEF02, YEF03, YEF07, YEF05B, YEF07B and YEF05H see FIG. 10) were added to a 2.5 μM concentration prior to the MC-MB16. On the other hand, the MB16 cells were marked with 40 μg/ml from the fluorescent probe BCECF-AM (carboxyfluorescein, 2′,7′-bis-(2-carboxy-ethyl)-5-(6)carboxyfluorescein aminoxymethyl ester) supplied by Molecular Probes Inc. (Oregon, USA). Afterward, a washing process was performed with DMEM-HCO3−—to remove the excess fluorochromium, the number of viable cells being calculated by means of the trypan blue exclusion test and resuspended to a concentration of 2×10^5 cells/ml. Lastly, 1 ml of the MB16 cell suspension was added to each well on the primary HSE cell culture plate. The co-culture plates were incubator-incubated at 37° C. for 8 minutes. The percentage of cellular adhesion was calculated by means of the a fluorescence measurement system described by Vidal-Vanaclocha et al. (1994) [Vidal-Vanaclocha, F., Amézaga, C., Asumendi, A., Kaplanski, G. & Dinarello, C. A. Interleukin-1 receptor blockade reduces the number and size of murine B16 melanoma hepatic metastases. Cancer Research, 1994, 54, 2667-2672]. In the experiments with IL-18, the MB16 cells were incubated with 10 ng/ml of IL-18 for 4 hours prior to being marked with BCECF-AM and were adhered to the HSE cell plate. The results in the figures are given as values related to the adhesion percentages of the untreated HSE cells.

Row | Structure (SMILES) | Increase in migration of HSC induced by MC-A375 (in words) [1] | Migration of human HSC's treated with MC-MA375 (No. cells migrated per field) [1] | Increase in HSC proliferation in response to MC-A375 (in words) [2] | Proliferation of human HSC's treated with MC-MA375 (No. cells per well) [2] [No. cells per well] | Increase in migration of HSE induced by MC-A375 (in words) [3] | Migration of HSE's treated with MC-MA375 (No. cells per field) [3] [No. cells per field] | Hepatic retention of MB16 Luc cells (No. cells × 10^6) [4] [No. cells × 10^6] | Adhesion of MB16 cells treated with IL-18 to HSE cells (% adhered cells) [5] [% adhered cells] | Increase of the percentage of adhesion of tumor cells to the HSE in response to IL-18 (in words) [5]
1 | Oc1ccc(/N=C/c2cc(O)cc(O)c2)cc1 [azaresveratrol, 5-((E)-(4-Hydroxyphenylimino)methyl)benzene-1,3-diol] | abolished | 6.0 ± 1.3 No. cells migrated per field | abrogated | 2600 ± 60 | abolished | 15.5 ± 30 | 0.98 ± 0.24 | 31 ± 4.0 | significantly (P<0.01) inhibited
2 | Oc1ccc(C=Cc2cc(O)cc(O)c2)cc1 [resveratrol, reference compound] | abolished | 6.5 ± 1.4 No. cells migrated per field | abrogated | 2250 ± 100 | abolished | 13.5 ± 5.0 | 1.05 ± 0.3 | 30 ± 4.0 | significantly (P<0.01) inhibited

Source: patent US8097656B2, “Nitrogenated trans-stilbene analogs, method for the obtention and medical applications thereof” (Dominion Pharmakine S.L, priority 2005, dated 2012)
